# According to the Kinase Knowledgebase extract (Sharma et al. 2016):
# Target: MAPK14 (human) (UniProt Q16539)
# Assay: Inhibition of MAPK14 Kinase Activity
# Sequence of MAPK14 (human) (Q16539 whole entry, looked up): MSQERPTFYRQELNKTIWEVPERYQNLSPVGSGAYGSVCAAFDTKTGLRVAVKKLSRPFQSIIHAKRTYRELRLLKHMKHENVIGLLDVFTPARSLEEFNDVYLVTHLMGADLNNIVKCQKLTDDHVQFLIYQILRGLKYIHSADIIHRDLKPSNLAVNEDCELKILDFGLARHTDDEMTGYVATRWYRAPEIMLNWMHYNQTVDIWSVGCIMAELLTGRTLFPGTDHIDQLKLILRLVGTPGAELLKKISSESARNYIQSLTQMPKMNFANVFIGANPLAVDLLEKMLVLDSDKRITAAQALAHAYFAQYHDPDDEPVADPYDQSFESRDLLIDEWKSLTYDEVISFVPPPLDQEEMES
row,SMILES,IC50
1,CCOC(=O)c1sc2c(ccc(=O)n2-c2ccsc2)c1Nc1ccc(F)cc1F,≤ 1000 nM
2,CON(C)C(=O)c1sc2c(ccc(=O)n2-c2ccccc2)c1Nc1ccccc1,≤ 1000 nM
3,NC(=O)c1sc2c(ccc(=O)n2-c2cccnc2)c1Nc1ccccc1,≤ 1000 nM
4,CCOC(=O)c1sc2c(ccc(=O)n2-c2ccsc2)c1Nc1ccc(F)c(C)c1,≤ 1000 nM
5,NC(=O)c1sc2c(ccc(=O)n2-c2ccccc2)c1Nc1ccc(F)c(Cl)c1,≤ 1000 nM
6,CNC(=O)c1sc2c(ccc(=O)n2-c2ccccc2)c1Nc1ccccc1,≤ 1000 nM
7,CCOC(=O)c1sc2c(ccc(=O)n2-c2ccccc2)c1Nc1ccc(F)cc1,≤ 1000 nM
8,CCN1CCN(C(=O)c2sc3c(ccc(=O)n3-c3ccccc3)c2Nc2ccccc2)CC1,≤ 1000 nM
9,CN(C)c1ccc(-n2c(=O)ccc3c(Nc4ccccc4)c(C(=O)NCCN4CCCCC4)sc32)cc1,≤ 1000 nM
10,CSc1cccc(Nc2c(C(N)=O)sc3c2ccc(=O)n3-c2ccccc2)c1,≤ 1000 nM
11,CCOC(=O)c1sc2c(ccc(=O)n2-c2ccccc2)c1Nc1cccc(Cl)c1,≤ 1000 nM
12,CCOC(=O)c1sc2c(ccc(=O)n2CCOCCOC)c1Nc1ccccc1,≤ 1000 nM
13,Cc1ccccc1-n1c(=O)ccc2c(Nc3ccc(F)cc3F)c(C(N)=O)sc21,≤ 1000 nM
14,N#Cc1cccc(Nc2c(C(N)=O)sc3c2ccc(=O)n3-c2ccccc2)c1,≤ 1000 nM
15,CCOC(=O)c1sc2c(ccc(=O)n2-c2ccc(F)cc2)c1Nc1cccc(C)c1C#N,≤ 1000 nM
16,CCOC(=O)c1sc2c(ccc(=O)n2-c2ccccc2)c1Nc1cccc(C#N)c1,≤ 1000 nM
17,CSc1cccc(Nc2c(C#N)sc3c2ccc(=O)n3-c2ccccc2)c1,≤ 1000 nM
18,CCN(CC)C(=O)c1sc2c(ccc(=O)n2-c2ccccc2)c1Nc1ccccc1,≤ 1000 nM
19,CCOC(=O)c1sc2c(ccc(=O)n2-c2ccc(C(C)(C)O)cc2)c1Nc1ccccc1,≤ 1000 nM
20,N#Cc1cccc(Nc2c(C(=O)N3CCCC3)sc3c2ccc(=O)n3-c2ccccc2)c1,≤ 1000 nM
21,CC(=O)c1sc2c(ccc(=O)n2-c2ccccc2)c1Nc1ccccc1,≤ 1000 nM
22,Cc1cccc(Nc2c(C(N)=O)sc3c2ccc(=O)n3-c2ccc(F)cc2)c1,≤ 1000 nM
23,NC(=O)c1sc2c(ccc(=O)n2-c2ccccc2)c1Nc1cccc(O)c1,≤ 1000 nM
24,N#Cc1sc2c(ccc(=O)n2-c2ccccc2)c1Nc1cccc(O)c1,≤ 1000 nM
25,CON(C)C(=O)c1sc2c(ccc(=O)n2-c2ccccc2)c1Nc1ccc(F)cc1F,≤ 1000 nM
26,N#Cc1sc2c(ccc(=O)n2-c2cccnc2)c1Nc1ccccc1,≤ 1000 nM

row,SMILES,IC50
1,CCOC(=O)c1sc2c(ccc(=O)n2-c2ccc(SC)cc2)c1Nc1ccccc1C#N,≤ 1000 nM
2,CCOC(=O)c1sc2c(ccc(=O)n2-c2ccccc2)c1Nc1ccccc1,≤ 1000 nM
3,Cc1cc(Nc2c(C#N)sc3c2ccc(=O)n3-c2ccccc2Cl)ccc1F,≤ 1000 nM
4,CCOC(=O)c1sc2c(ccc(=O)n2-c2ccc3c(ccn3C)c2)c1Nc1ccccc1C#N,≤ 1000 nM
5,Cc1cc(Nc2c(C#N)sc3c2ccc(=O)n3-c2ccccc2)ccc1F,≤ 1000 nM
6,CN(C)CCN(C)C(=O)c1sc2c(ccc(=O)n2-c2ccccc2)c1Nc1ccccc1,≤ 1000 nM
7,NC(=O)c1sc2c(ccc(=O)n2-c2ccccc2)c1Nc1cccc(OC(F)(F)F)c1,≤ 1000 nM
8,O=C(c1sc2c(ccc(=O)n2-c2ccccc2)c1Nc1ccc(F)cc1)N1CCCC1,≤ 1000 nM
9,NC(=O)c1sc2c(ccc(=O)n2-c2ccccc2)c1Nc1cccc(SC(F)(F)F)c1,≤ 1000 nM
10,O=C(NCCN1CCCCC1)c1sc2c(ccc(=O)n2CC2CC2)c1Nc1ccccc1,≤ 1000 nM
11,N#Cc1sc2c(ccc(=O)n2-c2ccccc2)c1Nc1cccc([N+](=O)[O-])c1,≤ 1000 nM
12,Cc1cccc(Nc2c(C(N)=O)sc3c2ccc(=O)n3-c2ccc(S(C)(=O)=O)cc2)c1,≤ 1000 nM
13,N#Cc1sc2c(ccc(=O)n2-c2ccccc2)c1Nc1ccccc1OC(F)(F)F,≤ 1000 nM
14,NC(=O)c1sc2c(ccc(=O)n2-c2ccccc2)c1Nc1cc(Cl)cc(Cl)c1,≤ 1000 nM
15,O=C(O)c1sc2c(ccc(=O)n2-c2ccccc2)c1Nc1ccccc1,≤ 1000 nM
16,CN1CCN(CCCNC(=O)c2sc3c(ccc(=O)n3-c3ccccc3)c2Nc2ccccc2)CC1,≤ 1000 nM
17,CCOC(=O)c1sc2c(ccc(=O)n2-c2ccccc2)c1Nc1ccc(OC)c(F)c1,≤ 1000 nM
18,C=Cc1ccc(-n2c(=O)ccc3c(Nc4ccc(F)cc4F)c(C(=O)OCC)sc32)cc1,≤ 1000 nM
19,CCOC(=O)c1sc2c(ccc(=O)n2-c2ccc(CN3CCCC3)cc2)c1Nc1ccccc1,≤ 1000 nM
20,Cc1cccc(Nc2c(C(N)=O)sc3c2ccc(=O)n3-c2ccccc2)c1C#N,≤ 1000 nM
21,N#Cc1ccccc1Nc1c(C(N)=O)sc2c1ccc(=O)n2-c1ccc(F)cc1,≤ 1000 nM
22,NC(=O)c1sc2c(ccc(=O)n2-c2ccccc2)c1Nc1cccc(Br)c1,≤ 1000 nM
23,CCOC(=O)c1sc2c(ccc(=O)n2-c2cccc(C)c2)c1Nc1cccc(C)c1,≤ 1000 nM
24,NC(=O)c1sc2c(ccc(=O)n2CC2CC2)c1Nc1ccccc1,≤ 1000 nM
25,CC(=O)c1ccc(-n2c(=O)ccc3c(Nc4cccc(Cl)c4)c(C#N)sc32)cc1,≤ 1000 nM
26,CCOC(=O)c1sc2c(ccc(=O)n2-c2ccsc2)c1Nc1ccccc1,≤ 1000 nM
